Laboratory results published in US4962109A, “Insecticidally and acaricidally active pyrimidine esters and intermediates therefor” (Imperial Chemical Industries PLC, priority 1985, dated 1990).

Experiments:
Assay type in all cases: in vivo
[1] = test system: Spodoptera exigua (lesser army worm - larvae); assay: Residual test on lesser army worm larvae (SP), Cotton leaf, mortality; settings: 48 h, 500 ppm, residual, 2 days, read-out: SP grading of mortality
Procedure: (§1) The activity of the Product was determined using a variety of insect pests. The Product was used in the form of liquid preparations containing 500, 250 or 100 parts per million (ppm) by weight of the Product. The preparations were made by dissolving the Product in acetone and diluting the solutions with water containing 0.01% by weight of a wetting agent sold under the trade name "LISSAPOL" NX until the liquid preparations contained the required concentration of the Product. "Lissapol" is a Registered Trade Mark.
(§2) The test procedure adopted with regard to each pest was basically the same and comprised supporting a number of the pests on a medium which was usually a host plant or a foodstuff on which the pests feed, and treating either or both the pests and the medium with the preparations. The mortality of the pests was then assessed at periods usually varying from one to three days after the treatment.
(§3) The results of the tests are given in Table III for each of the Products, at the rate in parts per million given in the second column as a grading of mortality designated as A, B or C wherein A indicates 80-100% mortality or knockdown, B indicates 50-79% mortality or knockdown and C indicates less than 50% mortality or knockdown.
(lesser army worm - larvae)

[2] = test system: Myzus persicae (aphids); assay: Contact test on aphids (MP), Chinese Cabbage leaf, mortality; settings: 72 h, 500 ppm, contact, 3 days, read-out: MP grading of mortality
Procedure: as §1, §2, §3

[3] = test system: Blattella germanica (cockroach nymphs); assay: Contact test on cockroach nymphs (BG/C), Plastic pot, mortality; settings: 48 h, 500 ppm, contact, 2 days, read-out: BG/C grading of mortality
Procedure: as §1, §2, §3
BG/C Blattella germanica

[4] = test system: Musca domestica (houseflies - adults); assay: Contact test on houseflies - adults (MD), Cotton wool/sugar, mortality; settings: 72 h, 500 ppm, contact, 3 days, read-out: MD grading of mortality
Procedure: as §1, §2, §3

[5] = test system: Musca domestica (houseflies - adults); assay: Knockdown test on houseflies - adults (MD/KD), Cotton wool/sugar; settings: 500 ppm, 4 hours, read-out: MD/KD grading of knockdown
Procedure: as §1, §2
In the case of the species Musca domestica (housefly), additional tests to determine the knockdown effect of the compounds were performed. PG,163
as §3

[6] = test system: Tetranychus urticae (spider mites - adult); assay: Contact test on spider mites - adult (TUa), French bean leaf, mortality; settings: 72 h, 500 ppm, contact, 3 days, read-out: TUa grading of mortality
Procedure: as §1, §2, §3

[7] = test system: Diabrotica balteata (rootworm larvae); assay: Residual test on rootworm larvae (DB), Filter paper/maize seed, mortality; settings: 48 h, 500 ppm, residual, 2 days, read-out: DB grading of mortality
Procedure: as §1, §2, §3

[8] = test system: Tetranychus urticae (spider mites - ova); assay: Contact test on spider mites - ova (TUe), French bean leaf, mortality; settings: 144 h, 500 ppm, contact, 6 days, read-out: TUe grading of mortality
Procedure: as §1, §2, §3

[9] = test system: Nephotettix cincticeps (green leaf hopper - nymphs); assay: Contact test on green leaf hopper nymphs (NC), Rice plant, mortality; settings: 48 h, 500 ppm, contact, 2 days, read-out: NC grading of mortality
Procedure: as §1, §2, §3
NC Nephotettix cincticeps

[10] = test system: Heliothis virescens (tobacco budworm - larvae); assay: Residual test on tobacco budworm larvae (HV), Cotton leaf, mortality; settings: 48 h, read-out: HV grading of mortality
Procedure: as §1, §2, §3
(tobacco budworm - larvae)

Compound | mortality at 500 ppm [1] | mortality at 500 ppm [2] | mortality at 500 ppm [3] | mortality at 500 ppm [4] | pest or weed control at 500 ppm [5] | mortality at 500 ppm [6] | mortality at 500 ppm [7] | mortality at 500 ppm [8] | mortality at 500 ppm [9] | mortality at 500 ppm [10]
COCc1c(F)c(F)c(COC(=O)C(c2cnc(C3(C)CC3)nc2)C(C)(C)C)c(F)c1F (racemic) [Compound 139, 2,3,5,6-tetrafluoro-4-(methoxymethyl)benzyl (RS)-2-[2-(1-methylcyclopropyl)pyrimidin-5-yl]-3,3-dimethylbutanoate] | 80 to 100% | 80 to 100% | 80 to 100% | 80 to 100% | 80 to 100% | 80 to 100% | < 50% | < 50% | 80 to 100% | 80 to 100%
COCc1c(F)c(F)c(COC(=O)C(c2cnc(-c3ccccc3)nc2)C(C)(C)C)c(F)c1F (racemic) [Compound 161, 2,3,5,6-tetrafluoro-4-(methoxymethyl)benzyl (RS)-2-(2-phenylpyrimidin-5-yl)-3,3-dimethylbutanoate] | 80 to 100% | 80 to 100% | 50 to 79% | 80 to 100% | 80 to 100% | 80 to 100% | 50 to 79% | 80 to 100% | 80 to 100% | < 50%
CC(C)(C)c1ncc(C(C(=O)OCc2c(F)c(F)c(COCc3ccc(Cl)cc3)c(F)c2F)C(C)(C)C)cn1 (racemic) [Compound 163, 4-[(4-chlorobenzyloxy)methyl]-2,3,5,6-tetrafluorobenyl (RS)-2-[2-(1,1-dimethylethyl)pyrimidin-5-yl]-3,3-dimethylbutanoate] | 50 to 79% | < 50% | < 50% | < 50% | < 50% | 80 to 100% | < 50% | < 50% | < 50% | < 50%
CC(C)(C)c1ncc(C(C(=O)OCc2c(F)c(F)c(CO)c(F)c2F)C(C)(C)C)cn1 (racemic) [Compound 164, 4-(hydroxymethyl)-2,3,5,6-tetrafluorobenzyl (RS)-2-[2-(1,1-dimethylethyl)pyrimidin-5-yl]-3,3-dimethylbutanoate] | 80 to 100% | 50 to 79% | < 50% | < 50% | 80 to 100% | 80 to 100% | < 50% | < 50% | < 50% | 50 to 79%
CC(C)(C)OC(=O)COCc1c(F)c(F)c(COC(=O)C(c2cnc(C(C)(C)C)nc2)C(C)(C)C)c(F)c1F (racemic) [Compound 165, 4-[(1,1-dimethylethyl)oxycarbonylmethoxymethyl]-2,3,5,6-tetrafluorobenzyl (RS)-2-[2-(1,1-dimethylethyl]pyrimidin-5-yl]-3,3-dimethylbutanoate] | < 50% | < 50% | < 50% | < 50% | < 50% | < 50% | < 50% | < 50% | 50 to 79% | < 50%
CC(=O)OCc1c(F)c(F)c(COC(=O)C(c2cnc(C(C)(C)C)nc2)C(C)(C)C)c(F)c1F (racemic) [Compound 166, 2,3,5,6-tetrafluoro-4-(acetyloxymethyl)benzyl (RS)-2-[2-(1,1-dimethylethyl)pyrimidin-5-yl]-3,3-dimethylbutanoate] | 80 to 100% | 80 to 100% | < 50% | < 50% | < 50% | 80 to 100% | 80 to 100% | 80 to 100% | 50 to 79% | < 50%
CCCc1c(F)c(F)c(COC(=O)C(c2cnc(C(C)(C)C)nc2)C(C)(C)C)c(F)c1F (racemic) [Compound 168, 4-(n-propyl)-2,3,5,6-tetrafluorobenzyl (RS)-2-[2-(1,1-dimethylethyl)pyrimidin-5-yl]-3,3-dimethylbutanoate] | 50 to 79% | 80 to 100% | < 50% | < 50% | < 50% | 80 to 100% | < 50% | 80 to 100% | 80 to 100% | 50 to 79%
CSCc1c(F)c(F)c(COC(=O)C(c2cnc(C(C)(C)C)nc2)C(C)(C)C)c(F)c1F (racemic) [Compound 169, 4-(methylthiomethyl)-2,3,5,6-tetrafluorobenzyl (RS)-2-[2-(1,1-dimethylethyl)pyrimidin-5-yl]-3,3-dimethylbutanoate] | 80 to 100% | 80 to 100% | < 50% | 80 to 100% | 80 to 100% | 80 to 100% | < 50% | 80 to 100% | 80 to 100% | < 50%
CCOC(=O)c1c(F)c(F)c(COC(=O)C(c2cnc(C(C)(C)C)nc2)C(C)(C)C)c(F)c1F (racemic) [Compound 170] | 80 to 100% | < 50% | < 50% | < 50% | 50 to 79% | 80 to 100% | < 50% | < 50% | 50 to 79% | < 50%
CC(C)OC(=O)c1c(F)c(F)c(COC(=O)C(c2cnc(C(C)(C)C)nc2)C(C)(C)C)c(F)c1F (racemic) [Compound 171, 4-[(prop-2-yl)oxycarbonyl]-2,3,5,6-tetrafluorobenzyl (RS)-2-[2-(1,1-dimethylethyl)pyrimidin-5-yl]-3,3-dimethylbutanoate] | < 50% | < 50% | < 50% | < 50% | < 50% | 80 to 100% | < 50% | < 50% | < 50% | < 50%
CC(C)(C)C(=O)OCc1c(F)c(F)c(COC(=O)C(c2cnc(C(C)(C)C)nc2)C(C)(C)C)c(F)c1F (racemic) [Compound 172, 4-[(2,2-dimethylpropionyl)oxymethyl]-2,3,5,6-tetrafluorobenzyl (RS)-2-[2-(1,1-dimethylethyl)pyrimidin-5-yl]-3,3-dimethylbutanoate] | < 50% | 50 to 79% | < 50% | < 50% | < 50% | 80 to 100% | < 50% | < 50% | < 50% | < 50%
CC(C)C(=O)OCc1c(F)c(F)c(COC(=O)C(c2cnc(C(C)(C)C)nc2)C(C)(C)C)c(F)c1F (racemic) [Compound 173, 4-[(2-methylpropionyl)oxymethyl]-2,3,5,6-tetrafluorobenzyl (RS)-2-[2-(1,1-dimethylethyl)pyrimidin-5-yl]-3,3-dimethylbutanoate] | 80 to 100% | 80 to 100% | < 50% | < 50% | < 50% | 80 to 100% | < 50% | < 50% | 80 to 100% | 80 to 100%
CC(C)SCc1c(F)c(F)c(COC(=O)C(c2cnc(C(C)(C)C)nc2)C(C)(C)C)c(F)c1F (racemic) [Compound 174] | < 50% | 80 to 100% | < 50% | < 50% | < 50% | 80 to 100% | < 50% | < 50% | 50 to 79% | < 50%
